Reference: ChEMBL document CHEMBL5154636, “Discovery of STAT3 and Histone Deacetylase (HDAC) Dual-Pathway Inhibitors for the Treatment of Solid Cancer” (J Med Chem, 2021)
Calls of active or inactive are those of the source. The calls are words filed in the database; no cut-off is given here.

Legend:
[1] = Clearance in Sprague-Dawley rat at 2 mg/kg, iv measured upto 24 hrs by LC-MS/MS analysis; format: ADME, organism-based; conditions: in vivo
MDA-MB-231 [2] = experiment: Induction of apoptosis in human MDA-MB-231 cells assessed as late apoptotic cells at 2 uM incubated for 24 hrs by Annexin-V/FITC and PI staining based flow cytometry analysis (reference value: 0.7%); format: functional
4T1 [3] = experiment: Antitumor activity against mouse 4T1 cells allografted in BALB/c mouse assessed as reduction in tumor weight at 15 mg/kg, ip qd for 21 days by vernier caliper method relative to control; format: functional; set-up: scale not given: the % may be the effect or the level left; conditions: time 21 day
MCF-10A = experiment: Cytotoxicity against human MCF-10 A cells assessed as reduction in cell viability at 32 uM incubated for 48 hrs by MTT assay relative to control; format: toxicity, cell-based
[4] = biological target: Histone deacetylase (Homo sapiens) (UniProt Q13547+O15379+Q9UBN7+Q92769+Q9UQL6+Q8WUI4+Q9BY41+Q96DB2+P56524+Q9UKV0+Q969S8); experiment: Inhibition of HDAC in human MDA-MB-231 cells assessed as increase in alpha tubulin acetylation incubated for 24 hrs by Western blot analysis; format: cell-based; conditions: dose 0.5-5 µM, DDE = dose-dependent effect
[5] = Half life in Sprague-Dawley rat at 20 mg/kg, po measured upto 24 hrs by LC-MS/MS analysis; format: ADME, organism-based; conditions: in vivo
MDA-MB-231 [6] = experiment: Induction of apoptosis in human MDA-MB-231 cells assessed as necrotic cells at 2 uM incubated for 24 hrs by Annexin-V/FITC and PI staining based flow cytometry analysis (reference value: 0.0%); format: functional
MDA-MB-231 [7] = experiment: Induction of apoptosis in human MDA-MB-231 cells assessed as necrotic cells at 5 uM incubated for 24 hrs by Annexin-V/FITC and PI staining based flow cytometry analysis (reference value: 0.0%); format: functional
MDA-MB-231 [8] = experiment: Induction of apoptosis in human MDA-MB-231 cells assessed as increase in cleaved PARP level at 0.5 to 5 uM incubated for 24 hrs by Western blot analysis; format: functional, cell-based; conditions: dose 0.5-5 µM
MDA-MB-231 [9] = experiment: Induction of apoptosis in human MDA-MB-231 cells assessed as necrotic cells at 10 uM incubated for 24 hrs by Annexin-V/FITC and PI staining based flow cytometry analysis (reference value: 0.0%); format: functional
MDA-MB-231 [10] = experiment: Antimigratory activity against human MDA-MB-231 cells assessed as inhibition of cell migration at 5 uM after 24 hrs by scratch wound healing assay based phase contrast microscopy analysis; format: functional
[11] = biological target: T1, Signal transducer and activator of transcription 3 (Homo sapiens, UniProt P40763); experiment: Inhibition of STAT3 in human MDA-MB-231 cells assessed as decrease in cyclin-D1 protein expression at 0.5 to 5 uM after 24 hrs by Western blot analysis; format: cell-based; conditions: dose 0.5-5 µM
[12] = biological target: T1, Signal transducer and activator of transcription 3; experiment: Binding affinity to recombinant GST tagged STAT3 (unknown origin) assessed as association constant at equilibrium
MDA-MB-231 [13] = experiment: Induction of apoptosis in human MDA-MB-231 cells assessed as early apoptotic cells at 5 uM incubated for 24 hrs by Annexin-V/FITC and PI staining based flow cytometry analysis (reference value: 1.4%); format: functional
4T1 [14] = experiment: Antitumor activity against mouse 4T1 cells allografted in BALB/c mouse assessed as reduction in tumor volume at 30 mg/kg, ip qd for 21 days and measured every 3 days by vernier caliper method relative to control; format: functional; set-up: scale not given: the % may be the effect or the level left; conditions: time 21 day
[15] = biological target: T2, Histone deacetylase 11 (Homo sapiens) (UniProt Q96DB2); experiment: Inhibition of recombinant human HDAC11 at 10 uM using Boc-Lys(TFA)-AMC as substrate by fluorescence assay relative to control
T2 sequence (whole entry): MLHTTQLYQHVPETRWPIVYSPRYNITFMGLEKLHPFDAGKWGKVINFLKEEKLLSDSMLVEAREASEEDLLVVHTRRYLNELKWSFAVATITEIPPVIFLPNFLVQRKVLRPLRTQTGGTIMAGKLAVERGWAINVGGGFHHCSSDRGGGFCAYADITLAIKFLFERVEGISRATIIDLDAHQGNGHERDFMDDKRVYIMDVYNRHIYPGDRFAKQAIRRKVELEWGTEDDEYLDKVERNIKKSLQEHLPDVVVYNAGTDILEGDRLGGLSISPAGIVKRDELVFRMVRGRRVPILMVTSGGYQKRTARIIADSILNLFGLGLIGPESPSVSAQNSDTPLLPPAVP

[16] = Volume of distribution at steady state in Sprague-Dawley rat at 2 mg/kg, iv measured upto 24 hrs by LC-MS/MS analysis; format: ADME, organism-based; conditions: in vivo, read-out: Vdss
MDA-MB-231 [17] = experiment: Induction of apoptosis in human MDA-MB-231 cells assessed as increase in cleaved capase-3 level at 0.5 to 5 uM incubated for 24 hrs by Western blot analysis; format: functional, cell-based; conditions: dose 0.5-5 µM
MDA-MB-231 [18] = experiment: Effect on STAT3 in human MDA-MB-231 cells assessed as […] phosphorylation at 10 uM incubated for 24 hrs by Western blot analysis; format: functional, cell-based
MDA-MB-231 [19] = experiment: Induction of apoptosis in human MDA-MB-231 cells assessed as early apoptotic cells at 10 uM incubated for 24 hrs by Annexin-V/FITC and PI staining based flow cytometry analysis (reference value: 1.4%); format: functional
[20] = Toxicity in BALB/c mousee assessed as change in body weight at 15 to 30 mg/kg, ip qd for 21 days; format: organism-based; conditions: mouse, in vivo, 504 h, dose 15-30 mg/kg, time 21 day
[21] = biological target: T1, Signal transducer and activator of transcription 3; experiment: Inhibition of STAT3 in human MDA-MB-231 cells assessed as decrease in cyclin D1 mRNA expression at 0.5 to 5 uM by qRT-PCR analysis; format: cell-based; conditions: dose 0.5-5 µM
MDA-MB-231 [22] = experiment: Induction of apoptosis in human MDA-MB-231 cells assessed as viable cells at 5 uM incubated for 24 hrs by Annexin-V/FITC and PI staining based flow cytometry analysis (reference value: 97.8%); format: functional; conditions: read-out: Activity
MDA-MB-231 [23] = experiment: Induction of apoptosis in human MDA-MB-231 cells assessed as chromatinorrhexis at 0.5 to 5 uM incubated for 24 hrs by Hoechst 33258 staining based fluorescence microscopy analysis; format: functional, cell-based; conditions: dose 0.5-5 µM
[24] = biological target: Histone deacetylase 4 (Homo sapiens) (UniProt P56524); experiment: Inhibition of recombinant human HDAC4 at 10 uM using […] substrate by fluorescence assay relative to control
Histone deacetylase 1 = Histone deacetylase 1 (Homo sapiens, UniProt Q13547); experiment: Inhibition of recombinant human HDAC1 using RHKK(Ac)AMC fluorogenic peptide as substrate by fluorescence assay
Histone deacetylase = experiment: Inhibition of HDAC in human MDA-MB-231 cells incubated for 24 hrs by fluorometric assay; format: cell-based

T1 sequence (P40763 whole entry): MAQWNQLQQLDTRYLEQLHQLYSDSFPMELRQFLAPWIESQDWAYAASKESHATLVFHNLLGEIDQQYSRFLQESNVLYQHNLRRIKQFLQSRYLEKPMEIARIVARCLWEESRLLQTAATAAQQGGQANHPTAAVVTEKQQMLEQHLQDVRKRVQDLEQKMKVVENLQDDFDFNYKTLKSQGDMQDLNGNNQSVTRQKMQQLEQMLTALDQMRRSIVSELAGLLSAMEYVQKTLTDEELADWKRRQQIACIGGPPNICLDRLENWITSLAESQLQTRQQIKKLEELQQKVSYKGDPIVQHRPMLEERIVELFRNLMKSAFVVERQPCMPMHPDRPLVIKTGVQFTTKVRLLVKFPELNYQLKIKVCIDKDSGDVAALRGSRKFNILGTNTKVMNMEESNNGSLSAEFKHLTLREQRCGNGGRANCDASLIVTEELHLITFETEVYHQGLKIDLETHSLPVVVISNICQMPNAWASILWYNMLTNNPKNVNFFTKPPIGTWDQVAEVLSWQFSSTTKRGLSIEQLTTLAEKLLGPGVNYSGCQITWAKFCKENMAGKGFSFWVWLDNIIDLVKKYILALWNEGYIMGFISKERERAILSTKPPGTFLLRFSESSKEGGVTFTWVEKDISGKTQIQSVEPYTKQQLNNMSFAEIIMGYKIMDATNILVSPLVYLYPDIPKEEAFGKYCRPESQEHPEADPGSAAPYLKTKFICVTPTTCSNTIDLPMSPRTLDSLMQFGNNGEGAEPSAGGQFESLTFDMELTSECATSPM
Histone deacetylase 1, sequence (Q13547 whole entry): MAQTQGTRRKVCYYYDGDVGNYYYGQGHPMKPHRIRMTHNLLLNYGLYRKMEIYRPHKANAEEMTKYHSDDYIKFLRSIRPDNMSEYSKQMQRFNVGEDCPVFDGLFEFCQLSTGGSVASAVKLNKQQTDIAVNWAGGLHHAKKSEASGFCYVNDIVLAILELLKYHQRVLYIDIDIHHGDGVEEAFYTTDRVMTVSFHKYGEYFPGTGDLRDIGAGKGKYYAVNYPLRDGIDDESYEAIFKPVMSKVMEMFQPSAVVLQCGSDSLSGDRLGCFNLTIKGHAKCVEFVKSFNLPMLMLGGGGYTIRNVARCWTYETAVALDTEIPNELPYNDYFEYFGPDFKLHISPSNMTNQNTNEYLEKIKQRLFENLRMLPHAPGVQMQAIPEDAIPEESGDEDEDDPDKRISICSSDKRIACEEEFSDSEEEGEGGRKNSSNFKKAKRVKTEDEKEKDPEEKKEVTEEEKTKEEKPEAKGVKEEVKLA
Histone deacetylase 4 (Homo sapiens), sequence (P56524 whole entry): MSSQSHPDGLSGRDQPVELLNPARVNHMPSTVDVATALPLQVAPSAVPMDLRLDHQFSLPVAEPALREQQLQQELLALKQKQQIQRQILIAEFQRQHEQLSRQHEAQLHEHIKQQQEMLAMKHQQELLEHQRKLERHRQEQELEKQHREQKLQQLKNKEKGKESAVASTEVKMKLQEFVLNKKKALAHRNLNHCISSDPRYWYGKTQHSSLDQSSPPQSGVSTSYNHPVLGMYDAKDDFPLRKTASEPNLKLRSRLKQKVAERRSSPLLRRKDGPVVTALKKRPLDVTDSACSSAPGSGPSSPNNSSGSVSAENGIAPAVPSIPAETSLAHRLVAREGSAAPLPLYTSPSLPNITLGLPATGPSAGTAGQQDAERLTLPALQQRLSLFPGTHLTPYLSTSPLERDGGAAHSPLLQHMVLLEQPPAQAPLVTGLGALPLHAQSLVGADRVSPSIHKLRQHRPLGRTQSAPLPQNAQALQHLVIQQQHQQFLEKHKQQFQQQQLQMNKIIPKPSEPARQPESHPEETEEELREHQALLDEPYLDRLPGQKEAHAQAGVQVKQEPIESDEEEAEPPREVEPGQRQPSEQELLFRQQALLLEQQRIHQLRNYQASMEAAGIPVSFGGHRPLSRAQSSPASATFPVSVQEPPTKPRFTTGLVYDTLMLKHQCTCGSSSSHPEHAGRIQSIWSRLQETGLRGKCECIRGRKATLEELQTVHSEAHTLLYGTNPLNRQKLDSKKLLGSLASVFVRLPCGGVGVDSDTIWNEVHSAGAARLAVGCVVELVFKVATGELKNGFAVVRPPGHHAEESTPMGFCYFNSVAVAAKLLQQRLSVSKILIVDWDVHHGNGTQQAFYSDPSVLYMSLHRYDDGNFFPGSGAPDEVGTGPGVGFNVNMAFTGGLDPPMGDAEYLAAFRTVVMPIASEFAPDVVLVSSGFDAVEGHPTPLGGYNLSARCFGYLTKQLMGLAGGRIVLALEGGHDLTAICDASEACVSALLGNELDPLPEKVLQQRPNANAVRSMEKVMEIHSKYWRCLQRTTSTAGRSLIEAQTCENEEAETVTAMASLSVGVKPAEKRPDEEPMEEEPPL

**Q.** Which results are given for `COc1cc(/C=C/c2ccc(OCCCCCCC(=O)NO)cc2)cc(OC)c1`?
**A.** clearance [1]: 63.9 mL/min/kg; Activity (MDA-MB-231 [2]): 5.7%; Activity (4T1 [3]): 53%; Activity (MCF-10A): 38%; Activity [4]: Dde; half-life [5]: 52.8 min; Activity (MDA-MB-231 [6]): 0.1%; Activity (MDA-MB-231 [7]): 0.2%; Activity (MDA-MB-231 [8]): Active; Activity (MDA-MB-231 [9]): 0.2%; Activity (MDA-MB-231 [10]): Active; inhibition [11]: Active; Ka [12]: 451000 M⁻¹ s⁻¹; Activity (MDA-MB-231 [13]): 15.2%; Activity (4T1 [14]): 64%; inhibition [15]: 37%; Vd [16]: 1.65 L/kg; Activity (MDA-MB-231 [17]): Active; Activity (MDA-MB-231 [18]): Active; Activity (MDA-MB-231 [19]): 39.6%; Activity [20]: Non-Toxic; inhibition [21]: Active; viability at 5 µM (MDA-MB-231 [22]): 80.8%; Activity (MDA-MB-231 [23]): Active; inhibition [24]: 12%; IC50 (Histone deacetylase 1): 683 nM; IC50 (Histone deacetylase): 23.15 nM
